Entries after “also recorded” stand apart in the source; their conditions may differ.
Experiments:
[1] = test system: female Sprague-Dawley rats; experiment: Binge eating model in non-estrous female rats (food restriction + stress, HPF intake); format: in vivo, rat; conditions: for 2-h chow food intake during binge eating test / 24-h chow food intake after binge eating test: acute administration (compounds 3 and 30 mg/kg, Topiramate 60 mg/kg)
Protocol: In this Example, the therapeutic potential of compounds were tested for their ability to inhibit binge eating. The animal model used was developed to explore the combination of food restriction and stress. […] Considering the reliability and the robustness of this model, it was adopted to test the inventive compounds.
A total of N=117, 52-day-old female Sprague-Dawley rats (175-200 g) were used. Rats were acclimated in individual cages with metallic walls; the floor and the front wall made of metallic grid. The dimensions of the cage floor being 30 cm×30 cm; the cage is 30 cm high. A front door (30 cm×20 cm) made of metallic grid was positioned in the anterior wall of the cage to gain access to the inside of the cage; the remaining part of the front wall was equipped with a drinking burette.
Rats were kept in a room at constant temperature (20-22° C.) and humidity (45-55%) under a 12-h light/dark cycle (lights on at 08:00 am) with ad lib chow and water. All procedures were conducted in adherence to the European Community Directive for Care and Use of Laboratory Animals.
Rats were offered food pellets, 4RF18, Mucedola, Settimo Milanese, Italy (2.6 kcal/g). The Highly Palatable Food (HPF) was prepared by mixing:
Rats were exposed to 3 consecutive 8-day cycles followed by the final test on day 25:
a) the control group (NR+NS) had chow ad libitum for 4 days, on days 5-6 it received chow+HPF for 2 h; on days 7-8 it had chow ad libitum; on day 25 it was not exposed to stress;
b) the second group (R+S) had chow restricted to 66% of the normal intake for 4 days, was offered chow and HPF (2 h) on days 5-6 and only chow on days 7-8; on day 25 it […].
Body weights and food intake were recorded daily. Food intake is expressed as mean kilocalories per kilogram ingested±SEM.
Therefore, immediately after the test on day 25, vaginal smears were collected and analyzed under microscope to assess the ovarian phase, and data from rats in the estrous phase were not included in the statistical analysis. Vaginal smears were analyzed by an experienced experimenter blind to treatment conditions.
For 15 min, the container (China coffee cup) containing HPF is placed outside the cage; the container handle is hooked to the top wire wall of the cage in the hollow part where food pellets are usually offered. In these conditions, the animal is able to see the cup in which it received HPF on days 5, 6, 13, and 14 of the first two cycles, is able to see in part the HPF itself, and is able to smell its odour. In this 15-min period, the rat engages in repeated movements of the forepaws, head, and trunk aimed at obtaining the HPF, but it is not able to reach it. Rats undergo the stressful procedure between 10.00 and 12.00 am. After 15 min, the cup is placed inside the cage of the rats in the stress group (R+S), so that the HPF became accessible to the rat.
100 mg of each compound (H0816, H0860, H0847 and H0900) was accurately weighed and suspended in 13.33 ml of 0.5% carboxymethyl cellulose sodium salt (CMC, Sigma-Aldrich Cat. C4888, lot 120M0216V) solution. The lower dose solution was prepared by dilution of 30 mg/ml suspension with 0.5% CMC solution. Suspensions were prepared freshly on test day. Vehicle was composed by a solution of 0.5% carboxymethyl cellulose sodium salt and was prepared by dissolving 1 g of CMC in 200 ml of distilled water. 180 mg of Topiramate was accurately weighed and suspended in 12 ml of 0.5% CMC solution. Compounds (vehicle and active principles) were administered by gavage in a volume of 4 ml/kg of body weight one hour before access to HPF.
All data are expressed as the mean±s.e.m. and each value reflects the mean number of animals per group as described in the legends. For data evaluation, the analysis of variance (ANOVA) was used followed by post-hoc (Bonferroni's) test when appropriate. Statistical significance was set at P<0.05. The Software used for the Graphs was Origin 7.0. […]

GHSR1a = biological target: T1, GHSR1a (Homo sapiens, UniProt Q92847); experiment: Calcium FLIPR assay, GHSR-1a agonism; format: cell-based; conditions: HEK293/GHSR1a cells
T1 construct: expressed in transfected cells; host or cells: HEK293
Procedure, shortened: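 Calcium flux measured by FLIPR in GHSR1a-expressing HEK293 cells after 30-60 min dye preloading. Compound was added at t=20 sec, alone for agonism or with ghrelin (10 nM) for antagonism, and fluorescence recorded for 2 minutes. EC50 and IC50 were estimated from dose-response data.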

[2] = first test, doses of 3 and 30 mg/kg by gavage, acute administration
[3] = first test, 30 mg/kg by gavage 1 h before access to HPF, vs R+S vehicle
[4] = first test, 3 and 30 mg/kg by gavage
[5] = second test, H0816 3, 10 and 30 mg/kg, Topiramate 60 mg/kg

T1 sequence (Q92847 whole entry): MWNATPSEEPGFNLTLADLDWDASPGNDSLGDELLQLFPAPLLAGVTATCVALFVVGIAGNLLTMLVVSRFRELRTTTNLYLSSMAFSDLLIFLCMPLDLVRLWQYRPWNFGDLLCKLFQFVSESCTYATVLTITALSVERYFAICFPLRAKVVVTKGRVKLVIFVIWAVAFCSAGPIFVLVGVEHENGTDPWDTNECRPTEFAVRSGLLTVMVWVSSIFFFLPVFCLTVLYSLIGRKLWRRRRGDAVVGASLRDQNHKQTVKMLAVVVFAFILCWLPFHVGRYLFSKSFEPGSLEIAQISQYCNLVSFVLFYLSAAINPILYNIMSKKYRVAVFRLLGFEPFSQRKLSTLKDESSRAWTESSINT

| EC50 (GHSR1a) | animals' gross behaviour during the 2-h test [1, 4] | animals' gross behaviour during the 2-h test ([1]; second test, 3, 10 and 30 mg/kg by gavage) | Compound | 2-h chow food intake during binge eating test ([1]; first test) | 24-h chow food intake after binge eating test ([1]; first test) | 2-h HPF intake (binge eating) in R+S rats, overall (ANOVA) [1, 2] | HPF intake (binge eating) in R+S rats, post-hoc [1, 3] | HPF intake (binge eating) in R+S rats, post-hoc ([1]; second test, 10 mg/kg by gavage 1 h before access to HPF) | HPF intake (binge eating) in R+S rats, post-hoc ([1]; second test, 30 mg/kg by gavage 1 h before access to HPF) | 2-h chow intake [1, 5] | 24-h chow intake [1, 5] | 2-h HPF intake (binge eating) in R+S rats, overall (ANOVA) ([1]; second test, doses of 3, 10 and 30 mg/kg by gavage) | HPF intake (binge eating) in R+S rats, post-hoc ([1]; first test, 3 mg/kg by gavage 1 h before access to HPF, vs R+S vehicle) |
| --- | --- | --- | --- | --- | --- | --- | --- | --- | --- | --- | --- | --- | --- |
| > 30 µM |  |  | CC[C@H](NC(=O)N(C)C1CCN(C)CC1)c1ccc(-c2cnccn2)c(Cl)c1Cl [Compound H0860, (S)-3-(1-(2,3-dichloro-4-(pyrazin-2-yl)phenyl)propyl)-1-methyl-1-(1-methylpiperidin-4-yl)urea] | significantly increased 2-h chow food intake | significantly increased 24-h chow food intake | not statistically significant; also recorded: did not significantly reduce HPF intake; also recorded: did not affect HPF intake |  |  |  |  |  |  |  |
| > 30 µM | did not affect animals' gross behaviour | did not affect animals' gross behaviour | C[C@H](NC(=O)N(C)C1CCN(C)CC1)c1ccc(-c2cnccn2)c(Cl)c1Cl [Compound H0816, (S)-3-(1-(2,3-dichloro-4-(pyrazin-2-yl)phenyl)ethyl)-1-methyl-1-(1-methylpiperidin-4-yl)urea] | did not modify 2-h chow intake | did not modify 24-h chow intake | reduced binge eating episodes; also recorded: significant difference; also recorded: significantly reduced BE behaviour | statistically significant (P<0.05) at 15 min time point | statistically significant (P<0.05) at 15 min time point | completely blocked (P<0.01) the BE episode at 15 min | did not modify | did not modify | significant difference; also recorded: confirmed, dose dependently, its selective inhibitory effect on BE |  |
| > 30 µM | did not affect animals' gross behaviour |  | CN1CCC(N(C)C(=O)N[C@H](c2ccc(-c3cnccn3)c(Cl)c2Cl)C(F)(F)F)CC1 [Compound H0900, (R)-3-(1-(2,3-dichloro-4-(pyrazin-2-yl)phenyl)-2,2,2-trifluoroethyl)-1-methyl-1-(1-methylpiperidin-4-yl)urea] | did not modify 2-h chow intake | did not modify 24-h chow intake | reduced binge eating episodes; also recorded: significant difference; also recorded: significantly reduced BE behaviour | statistically significant (P<0.01) at all time points |  |  |  |  |  |  |

| Compound | EC50 (GHSR1a) | animals' gross behaviour during the 2-h test [1, 4] | animals' gross behaviour during the 2-h test ([1]; second test, 3, 10 and 30 mg/kg by gavage) | 2-h chow food intake during binge eating test ([1]; first test) | 24-h chow food intake after binge eating test ([1]; first test) | 2-h HPF intake (binge eating) in R+S rats, overall (ANOVA) [1, 2] | HPF intake (binge eating) in R+S rats, post-hoc [1, 3] | HPF intake (binge eating) in R+S rats, post-hoc ([1]; second test, 10 mg/kg by gavage 1 h before access to HPF) | HPF intake (binge eating) in R+S rats, post-hoc ([1]; second test, 30 mg/kg by gavage 1 h before access to HPF) | 2-h chow intake [1, 5] | 24-h chow intake [1, 5] | 2-h HPF intake (binge eating) in R+S rats, overall (ANOVA) ([1]; second test, doses of 3, 10 and 30 mg/kg by gavage) | HPF intake (binge eating) in R+S rats, post-hoc ([1]; first test, 3 mg/kg by gavage 1 h before access to HPF, vs R+S vehicle) |
| --- | --- | --- | --- | --- | --- | --- | --- | --- | --- | --- | --- | --- | --- |
| C[C@H](NC(=O)N(C)C1CCN(C)CC1)c1ccc(-c2cncc(F)n2)c(Cl)c1Cl [Compound H0847, (S)-3-(1-(2,3-dichloro-4-(6-fluoropyrazin-2-yl)phenyl)ethyl)-1-methyl-1-(1-methylpiperidin-4-yl)urea] | > 30 µM | mild sedation |  | significantly increased 2-h chow food intake | significantly increased 24-h chow food intake | reduced binge eating episodes; also recorded: significant difference; also recorded: significantly reduced BE behaviour | significantly (P<0.01) reduced HPF intake at all time points |  |  |  |  |  | statistically significant at 15, 30 and 60 min after HPF access |
